From patent US12377076B2, “Compounds for treating lymphoma or a T-cell malignant disease” (Purdue Pharma L.P., priority 2018, dated 2025)
Values joined by “and” are separate entries in the source; they are usually repeats but may differ in a detail not shown here. Identical values can stand only once. “Also recorded” adds a separate entry of the source.

Legend:
[1] = system: patients with relapsed/refractory hematologic malignancies; assay: Phase 1 dose escalation trial: safety, TEAEs, DLTs, MTD; assay type: in vivo, human
Protocol: A phase 1 trial was carried out including a dose escalation study to investigate the safety, pharmacokinetic (PK) profiles and efficacy of tinostamustine (EDO-S101) in relapsed/refractory hematologic malignancies.
The patient had relapsed/refractory hematologic malignancies for which there are no available therapies.
The assessment of dose-limiting toxicities (DLTs) was based on cycle 1 events alone. Toxicities were assessed regarding type and severity using the National Cancer Institute (NCI) Common Terminology Criteria for Adverse Events (CTCAE) version 4.03, June 2010. Toxicity data were collected for all patients throughout their time on study. Infusion site reactions were assessed using the Phlebitis Scale developed by the Infusion Nurses Society (2011).
DLTs, which were at least possibly related to study drug, were defined as: • Any Grade 3 or 4 non-hematologic toxicity (excluding alopecia and easily correctable electrolyte abnormalities); • Nausea, vomiting or diarrhoea that persists beyond 10 days despite aggressive symptomatic treatment; • Grade 4 neutropenia or thrombocytopenia lasting for 7 days or more; • Any grade 2 or more toxicity, but persist for over 3 weeks; and • Any toxicity resulting in a delay of the next dose administration (cycle 2 day 1≥14).
To ensure patients' safety, the stopping rules were implemented to the dose escalation stage of the study.
Other safety assessments included physical examinations, Eastern Cooperative Oncology Group (ECOG) performance status determinations, electrocardiograms (ECGs), pregnancy testing for women of childbearing potential, documentation of treatment-emergent adverse events (TEAEs), clinical laboratory evaluations including haematology, blood chemistry and urinalysis, vital signs, and documentation of concomitant medication usage.
If there is no DLT observed in any of these subjects, the trial proceeds to enroll additional subjects into the next higher dose cohort. If one subject develops a DLT at a specific dose, an additional three subjects are enrolled into that same dose cohort.

lymphoma = conditions: in vitro and in vivo models; cited from earlier work
[2] = all cohorts administered over 30 or 45 minutes
[3] = clinical chemistry TEAE, All Patients (N = 46)
[4] = clinical chemistry TEAE, all patients
[5] = doses of 20 to 80 mg/m^2, cohorts 20/60 to 120/60
[6] = doses of 100 or 120 mg/m^2, cohorts 20/60 to 120/60
[7] = patients with normal or grade 1 or 2 values at baseline

Cn1c(CCCCCCC(=O)NO)nc2cc(N(CCCl)CCCl)ccc21 [tinostamustine]
DLTs in cycle 1 ([1]; 100 mg/m^2 over 60 minutes): no dose-limiting toxicities
patients with Grade 3 and 4 thrombocytopenia in C2 and C3 leading to withdrawal ([1]; 100 mg/m^2 over 60 minutes): three
Grade 3 TEAE ([1]; Patients (N = 46)): 28 (60.8)
Grade 4 TEAE ([1]; Patients (N = 46)): 13 (28.2)
Infusion site phlebitis ([1]; Patients (N = 46)): 1 (2.1)
SAE ([1]; Patients (N = 46)): 8 (17.4)
TEAE leading to early study discontinuation ([1]; Patients (N = 46)): 11 (23.9)
TEAE with outcome of death ([1]; Patients (N = 46)): 0 (0)
TEAE ([1]; Patients (N = 46), number (percent)): 42 (91.3)
Treatment-related TEAE ([1]; Patients (N = 46), relationship possible, probable or definite): 38 (82.6)
incidence of leukopenia ([1]; administered over 30 or 45 minutes): 16%
incidence of leukopenia ([1]; administered over 60 minutes): 27%
incidence of thrombocytopenia ([1]; administered over 60 minutes): 58%
maximum tolerated dose (MTD) ([1]; administered over 60 minutes, subset of patients with MM (N=11)): 100 mg/m^2
SAE dyspnea ([1]; all 46 patients): 2%
SAE febrile neutropenia ([1]; all 46 patients): 2%
SAE hypersensitivity ([1]; all 46 patients): 2%
SAE osteomyelitis ([1]; all 46 patients): 2%
SAE pleural effusion ([1]; all 46 patients): 2%
SAE pneumonia ([1]; all 46 patients): 2%
SAE sepsis ([1]; all 46 patients): 2%
TEAE with an outcome of death (grade 5 TEAE) ([1]; all 46 patients): No patient
anaphylactic reaction leading to study drug discontinuation ([1]; all 46 patients): 2%
blood and lymphatic system disorders ([1]; all 46 patients): 54%
discontinuation for adverse events (AE) ([1]; all 46 patients): 29%
febrile neutropenia leading to study drug discontinuation ([1]; all 46 patients): 2%
gastrointestinal (GI) disorders ([1]; all 46 patients): 52%
general disorders and administration site conditions ([1]; all 46 patients): 50%
grade 3/4 anemia ([1]; all 46 patients): 22%
grade 3/4 leukopenia/WBC decreased ([1]; all 46 patients): 15% and 16%
grade 3/4 lymphopenia ([1]; all 46 patients): 8.6%
grade 3/4 neutropenia/neutrophil count decreased ([1]; all 46 patients): 29%
grade 3/4 thrombocytopenia ([1]; all 46 patients): 39% and 40%
hypersensitivity leading to study drug discontinuation ([1]; all 46 patients): 2%
incidence of all other TEAEs ([1]; all 46 patients): < 20%
incidence of nausea ([1]; all 46 patients): 29%
infusion-site phlebitis events ([1]; all 46 patients): 2%
neutropenia leading to study drug discontinuation ([1]; all 46 patients): 4%
patients who discontinued study drug because of a TEAE ([1]; all 46 patients): 23%
patients with a grade 3 or 4 TEAE ([1]; all 46 patients): 63%
patients with at least 1 grade 3 TEAE ([1]; all 46 patients): 60%
patients with at least 1 grade 4 TEAE ([1]; all 46 patients): 28%
patients with at least 1 serious adverse event (SAE) ([1]; all 46 patients): 18%
patients with at least one TEAE ([1]; all 46 patients): 91%
patients with at least one study drug-related TEAE ([1]; all 46 patients): 38 patients
pleural effusion leading to study drug discontinuation ([1]; all 46 patients): 2%
pruritus leading to study drug discontinuation ([1]; all 46 patients): 2%
thrombocytopenia leading to study drug discontinuation ([1]; all 46 patients): 15%
incidence of anaemia ([1]; all 46 patients, any grade): 39%
incidence of leukopenia/WBC decreased ([1]; all 46 patients, any grade): 21% and 22%
incidence of neutropenia/neutrophil count decreased ([1]; all 46 patients, any grade): 29% and 28%
incidence of thrombocytopenia/platelet count decreased ([1]; all 46 patients, any grade): 52%
SAE thrombocytopenia ([1]; all 46 patients, grade 3, HM120/60 cohort): 2%
incidence of anaemia [1, 2]: 37%
incidence of thrombocytopenia [1, 2]: 47%
thrombocytopenia leading to study drug and/or study discontinuation ([1]; all patients): 19%
Blood alkaline phosphatase increased [1, 3]: 1 (2.1) n (%)
Blood magnesium decreased [1, 3]: 1 (2.1) n (%)
Blood potassium decreased/hypokalaemia [1, 3]: 5 (10.8) n (%)
C-reactive protein increased [1, 3]: 2 (4.3) n (%)
Hyperglycaemia [1, 3]: 1 (2.1) n (%)
Hyperuricemia [1, 3]: 1 (2.1) n (%)
blood creatinine increased [1, 3]: 4 (8.6) n (%)
C-reactive protein increased [1, 4]: 4%
blood creatinine increased [1, 4]: 9%
blood potassium decreased/hypokalemia [1, 4]: 11%
grade 3 hyperuricemia ([1]; considered unrelated to study drug): 2%
DLTs that occurred ([1]; dose cohort of 120/60): Grade 4 thrombocytopenia lasting for 7 days or more; also recorded: Prolonged thrombocytopenia/toxicity resulting in the delay of the next dose administration
incidence of grade 3 or 4 anaemia ([1]; doses of 20 to 80 mg/m^2): 8%
incidence of anaemia [1, 5]: 25%
incidence of grade 3/4 thrombocytopenia [1, 5]: 8%
incidence of leukopenia [1, 5]: 17%
incidence of neutropenia [1, 5]: 25%
incidence of grade 3 or 4 anaemia ([1]; doses of 100 or 120 mg/m^2): 36%
incidence of anaemia [1, 6]: 64%
incidence of grade 3/4 thrombocytopenia [1, 6]: 71%
incidence of leukopenia [1, 6]: 36%
incidence of neutropenia [1, 6]: 50%
haematological nadir occurs ([1]; human, in vivo, intravenous): 17-23 day
patients who discontinued study drug and/or the study because of neutropenia ([1]; in vivo): Two
patients who discontinued study drug or the study because of leukopenia ([1]; in vivo): No patient
patients with treatment-emergent QTcF interval >500 msec ([1]; in vivo): One
treatment-emergent ECG abnormality indicated to be clinically significant ([1]; in vivo): No patient
MTD ([1]; lymphoma and multiple myeloma patients): 100 mg/m^2
MTD ([1]; lymphoma subpopulation): 100 mg/m^2
MAD ([1]; lymphoma subpopulation, administered over 1 hour): 120 mg/m^2
patients experiencing DLTs ([1]; lymphoma, 120 mg/m^2 over 1 hour): Two out of six
QTcF interval ([1]; one subject, MM 80/45 cohort, discontinuation visit three weeks after only dose, screening 423 msec): 677 ms
incidence of cardiac disorders ([1]; overall): 11%
study drug-related cardiac disorder, grade 1 palpitations ([1]; overall): 2%
tachycardia ([1]; overall): 4%
treatment-emergent grade 4 clinical chemistry abnormality, hyperuricemia [1, 7]: 2%
treatment-emergent shift to grade 3 aspartate aminotransferase increased [1, 7]: 2%
treatment-emergent shift to grade 3 hypoalbuminemia [1, 7]: 2%
incidence of neutropenia ([1]; shorter infusion times): 16%
activity against lymphoma (lymphoma): potent activity
